Experimental data published in the OligoGym collection.
“And” between values parts separate entries of the source, which are not always exact repeats. Equal entries are not always repeated. HELM strings list units from the 5' end as sugar, base in round brackets, then linkage (d deoxyribose, r ribose, m 2'-O-methyl, p phosphodiester). Strings are as the collection lists them, not checked against the first reports. ss, as = sense and antisense strand; [una] = unlocked nucleic acid; [s4r] = 4'-thioribose

Conditions: siRNA
Also: test system not given here.

Substance	target mRNA knockdown
RNA1{[s4r](C)p.[s4r](G)p.[s4r](U)p.[s4r](A)p.[s4r](C)p.[s4r](G)p.r(C)p.r(G)p.r(G)p.r(A)p.r(A)p.r(U)p.r(A)p.r(C)p.r(U)p.r(U)p.r(C)p.r(G)p.r(A)p.r(T)p.r(T)}|RNA2{r(U)p.r(C)p.r(G)p.r(A)p.r(A)p.r(G)p.r(U)p.r(A)p.r(U)p.r(U)p.r(C)p.r(C)p.r(G)p.[s4r](C)p.[s4r](G)p.[s4r](U)p.[s4r](A)p.[s4r](C)p.[s4r](G)p.r(T)p.r(T)}$$$RNA1{StrandType:ss}|RNA2{StrandType:as}$	47.8%
RNA1{[s4r](C)p.[s4r](G)p.[s4r](U)p.[s4r](A)p.[s4r](C)p.[s4r](G)p.r(C)p.r(G)p.r(G)p.r(A)p.r(A)p.r(U)p.r(A)p.r(C)p.r(U)p.r(U)p.r(C)p.r(G)p.r(A)p.r(T)p.r(T)}|RNA2{r(U)p.r(C)p.r(G)p.r(A)p.r(A)p.r(G)p.r(U)p.r(A)p.r(U)p.r(U)p.r(C)p.r(C)p.r(G)p.r(C)p.r(G)p.r(U)p.r(A)p.r(C)p.r(G)p.r(T)p.r(T)}$$$RNA1{StrandType:ss}|RNA2{StrandType:as}$	94%
RNA1{[s4r](C)p.[s4r](G)p.[s4r](U)p.[s4r](A)p.r(C)p.r(G)p.r(C)p.r(G)p.r(G)p.r(A)p.r(A)p.r(U)p.r(A)p.r(C)p.r(U)p.[s4r](U)p.[s4r](C)p.[s4r](G)p.[s4r](A)p.r(T)p.r(T)}|RNA2{[s4r](U)p.[s4r](C)p.[s4r](G)p.[s4r](A)p.r(A)p.r(G)p.r(U)p.r(A)p.r(U)p.r(U)p.r(C)p.r(C)p.r(G)p.r(C)p.r(G)p.[s4r](U)p.[s4r](A)p.[s4r](C)p.[s4r](G)p.r(T)p.r(T)}$$$RNA1{StrandType:ss}|RNA2{StrandType:as}$	0%
RNA1{[s4r](C)p.[s4r](G)p.[s4r](U)p.[s4r](A)p.r(C)p.r(G)p.r(C)p.r(G)p.r(G)p.r(A)p.r(A)p.r(U)p.r(A)p.r(C)p.r(U)p.[s4r](U)p.[s4r](C)p.[s4r](G)p.[s4r](A)p.r(T)p.r(T)}|RNA2{[s4r](U)p.[s4r](C)p.r(G)p.r(A)p.r(A)p.r(G)p.r(U)p.r(A)p.r(U)p.r(U)p.r(C)p.r(C)p.r(G)p.r(C)p.r(G)p.r(U)p.r(A)p.[s4r](C)p.[s4r](G)p.r(T)p.r(T)}$$$RNA1{StrandType:ss}|RNA2{StrandType:as}$	87.7%
RNA1{[s4r](C)p.[s4r](G)p.[s4r](U)p.[s4r](A)p.r(C)p.r(G)p.r(C)p.r(G)p.r(G)p.r(A)p.r(A)p.r(U)p.r(A)p.r(C)p.r(U)p.[s4r](U)p.[s4r](C)p.[s4r](G)p.[s4r](A)p.r(T)p.r(T)}|RNA2{r(U)p.r(C)p.r(G)p.r(A)p.r(A)p.r(G)p.r(U)p.r(A)p.r(U)p.r(U)p.r(C)p.r(C)p.r(G)p.r(C)p.r(G)p.[s4r](U)p.[s4r](A)p.[s4r](C)p.[s4r](G)p.r(T)p.r(T)}$$$RNA1{StrandType:ss}|RNA2{StrandType:as}$	88.1%
RNA1{[s4r](C)p.[s4r](G)p.[s4r](U)p.[s4r](A)p.r(C)p.r(G)p.r(C)p.r(G)p.r(G)p.r(A)p.r(A)p.r(U)p.r(A)p.r(C)p.r(U)p.[s4r](U)p.[s4r](C)p.[s4r](G)p.[s4r](A)p.r(T)p.r(T)}|RNA2{r(U)p.r(C)p.r(G)p.r(A)p.r(A)p.r(G)p.r(U)p.r(A)p.r(U)p.r(U)p.r(C)p.r(C)p.r(G)p.r(C)p.r(G)p.r(U)p.r(A)p.[s4r](C)p.[s4r](G)p.r(T)p.r(T)}$$$RNA1{StrandType:ss}|RNA2{StrandType:as}$	92%
RNA1{[s4r](C)p.[s4r](G)p.[s4r](U)p.[s4r](A)p.r(C)p.r(G)p.r(C)p.r(G)p.r(G)p.r(A)p.r(A)p.r(U)p.r(A)p.r(C)p.r(U)p.[s4r](U)p.[s4r](C)p.[s4r](G)p.[s4r](A)p.r(T)p.r(T)}|RNA2{r(U)p.r(C)p.r(G)p.r(A)p.r(A)p.r(G)p.r(U)p.r(A)p.r(U)p.r(U)p.r(C)p.r(C)p.r(G)p.r(C)p.r(G)p.r(U)p.r(A)p.r(C)p.r(G)p.r(T)p.r(T)}$$$RNA1{StrandType:ss}|RNA2{StrandType:as}$	94.7%
RNA1{[s4r](C)p.[s4r](G)p.[s4r](U)p.[s4r](A)p.r(C)p.r(G)p.r(C)p.r(G)p.r(G)p.r(A)p.r(A)p.r(U)p.r(A)p.r(C)p.r(U)p.r(U)p.r(C)p.r(G)p.r(A)p.r(T)p.r(T)}|RNA2{[s4r](U)p.[s4r](C)p.r(G)p.r(A)p.r(A)p.r(G)p.r(U)p.r(A)p.r(U)p.r(U)p.r(C)p.r(C)p.r(G)p.r(C)p.r(G)p.r(U)p.r(A)p.[s4r](C)p.[s4r](G)p.r(T)p.r(T)}$$$RNA1{StrandType:ss}|RNA2{StrandType:as}$	85.4%
RNA1{[s4r](C)p.[s4r](G)p.[s4r](U)p.[s4r](A)p.r(C)p.r(G)p.r(C)p.r(G)p.r(G)p.r(A)p.r(A)p.r(U)p.r(A)p.r(C)p.r(U)p.r(U)p.r(C)p.r(G)p.r(A)p.r(T)p.r(T)}|RNA2{r(U)p.r(C)p.r(G)p.r(A)p.r(A)p.r(G)p.r(U)p.r(A)p.r(U)p.r(U)p.r(C)p.r(C)p.r(G)p.r(C)p.r(G)p.[s4r](U)p.[s4r](A)p.[s4r](C)p.[s4r](G)p.r(T)p.r(T)}$$$RNA1{StrandType:ss}|RNA2{StrandType:as}$	86.1%
RNA1{[s4r](C)p.[s4r](G)p.[s4r](U)p.[s4r](A)p.r(C)p.r(G)p.r(C)p.r(G)p.r(G)p.r(A)p.r(A)p.r(U)p.r(A)p.r(C)p.r(U)p.r(U)p.r(C)p.r(G)p.r(A)p.r(T)p.r(T)}|RNA2{r(U)p.r(C)p.r(G)p.r(A)p.r(A)p.r(G)p.r(U)p.r(A)p.r(U)p.r(U)p.r(C)p.r(C)p.r(G)p.r(C)p.r(G)p.r(U)p.r(A)p.r(C)p.r(G)p.r(T)p.r(T)}$$$RNA1{StrandType:ss}|RNA2{StrandType:as}$	94.2%
RNA1{[s4r](C)p.[s4r](G)p.r(U)p.r(A)p.r(C)p.r(G)p.r(C)p.r(G)p.r(G)p.r(A)p.r(A)p.r(U)p.r(A)p.r(C)p.r(U)p.r(U)p.r(C)p.[s4r](G)p.[s4r](A)p.r(T)p.r(T)}|RNA2{[s4r](U)p.[s4r](C)p.r(G)p.r(A)p.r(A)p.r(G)p.r(U)p.r(A)p.r(U)p.r(U)p.r(C)p.r(C)p.r(G)p.r(C)p.r(G)p.r(U)p.r(A)p.[s4r](C)p.[s4r](G)p.r(T)p.r(T)}$$$RNA1{StrandType:ss}|RNA2{StrandType:as}$	85.3%
RNA1{[s4r](C)p.[s4r](G)p.r(U)p.r(A)p.r(C)p.r(G)p.r(C)p.r(G)p.r(G)p.r(A)p.r(A)p.r(U)p.r(A)p.r(C)p.r(U)p.r(U)p.r(C)p.[s4r](G)p.[s4r](A)p.r(T)p.r(T)}|RNA2{r(U)p.r(C)p.r(G)p.r(A)p.r(A)p.r(G)p.r(U)p.r(A)p.r(U)p.r(U)p.r(C)p.r(C)p.r(G)p.r(C)p.r(G)p.r(U)p.r(A)p.[s4r](C)p.[s4r](G)p.r(T)p.r(T)}$$$RNA1{StrandType:ss}|RNA2{StrandType:as}$	92.1%
RNA1{[s4r](C)p.[s4r](G)p.r(U)p.r(A)p.r(C)p.r(G)p.r(C)p.r(G)p.r(G)p.r(A)p.r(A)p.r(U)p.r(A)p.r(C)p.r(U)p.r(U)p.r(C)p.[s4r](G)p.[s4r](A)p.r(T)p.r(T)}|RNA2{r(U)p.r(C)p.r(G)p.r(A)p.r(A)p.r(G)p.r(U)p.r(A)p.r(U)p.r(U)p.r(C)p.r(C)p.r(G)p.r(C)p.r(G)p.r(U)p.r(A)p.r(C)p.r(G)p.r(T)p.r(T)}$$$RNA1{StrandType:ss}|RNA2{StrandType:as}$	95.3%
RNA1{[s4r](C)p.[s4r](G)p.r(U)p.r(A)p.r(C)p.r(G)p.r(C)p.r(G)p.r(G)p.r(A)p.r(A)p.r(U)p.r(A)p.r(C)p.r(U)p.r(U)p.r(C)p.r(G)p.r(A)p.r(T)p.r(T)}|RNA2{[s4r](U)p.[s4r](C)p.r(G)p.r(A)p.r(A)p.r(G)p.r(U)p.r(A)p.r(U)p.r(U)p.r(C)p.r(C)p.r(G)p.r(C)p.r(G)p.r(U)p.r(A)p.[s4r](C)p.[s4r](G)p.r(T)p.r(T)}$$$RNA1{StrandType:ss}|RNA2{StrandType:as}$	90.4%
RNA1{[s4r](C)p.[s4r](G)p.r(U)p.r(A)p.r(C)p.r(G)p.r(C)p.r(G)p.r(G)p.r(A)p.r(A)p.r(U)p.r(A)p.r(C)p.r(U)p.r(U)p.r(C)p.r(G)p.r(A)p.r(T)p.r(T)}|RNA2{r(U)p.r(C)p.r(G)p.r(A)p.r(A)p.r(G)p.r(U)p.r(A)p.r(U)p.r(U)p.r(C)p.r(C)p.r(G)p.r(C)p.r(G)p.r(U)p.r(A)p.[s4r](C)p.[s4r](G)p.r(T)p.r(T)}$$$RNA1{StrandType:ss}|RNA2{StrandType:as}$	91.3%
RNA1{[s4r](C)p.[s4r](G)p.r(U)p.r(A)p.r(C)p.r(G)p.r(C)p.r(G)p.r(G)p.r(A)p.r(A)p.r(U)p.r(A)p.r(C)p.r(U)p.r(U)p.r(C)p.r(G)p.r(A)p.r(T)p.r(T)}|RNA2{r(U)p.r(C)p.r(G)p.r(A)p.r(A)p.r(G)p.r(U)p.r(A)p.r(U)p.r(U)p.r(C)p.r(C)p.r(G)p.r(C)p.r(G)p.r(U)p.r(A)p.r(C)p.r(G)p.r(T)p.r(T)}$$$RNA1{StrandType:ss}|RNA2{StrandType:as}$	95.5%
RNA1{[s4r](C)p.r(G)p.[s4r](U)p.r(A)p.[s4r](C)p.r(G)p.[s4r](C)p.r(G)p.r(G)p.r(A)p.r(A)p.[s4r](U)p.r(A)p.[s4r](C)p.[s4r](U)p.[s4r](U)p.[s4r](C)p.r(G)p.r(A)p.r(T)p.r(T)}|RNA2{r(U)p.r(C)p.r(G)p.r(A)p.r(A)p.r(G)p.r(U)p.r(A)p.r(U)p.r(U)p.r(C)p.r(C)p.r(G)p.r(C)p.r(G)p.r(U)p.r(A)p.r(C)p.r(G)p.r(T)p.r(T)}$$$RNA1{StrandType:ss}|RNA2{StrandType:as}$	92.9%
RNA1{[s4r](C)p.r(G)p.r(U)p.r(A)p.[s4r](C)p.r(G)p.[s4r](C)p.r(G)p.r(G)p.r(A)p.r(A)p.r(U)p.r(A)p.[s4r](C)p.r(U)p.r(U)p.[s4r](C)p.r(G)p.r(A)p.r(T)p.r(T)}|RNA2{r(U)p.r(C)p.r(G)p.r(A)p.r(A)p.r(G)p.r(U)p.r(A)p.r(U)p.r(U)p.r(C)p.r(C)p.r(G)p.r(C)p.r(G)p.r(U)p.r(A)p.r(C)p.r(G)p.r(T)p.r(T)}$$$RNA1{StrandType:ss}|RNA2{StrandType:as}$	93.6%
RNA1{[una](A)p.r(C)p.r(A)p.r(G)p.r(A)p.r(G)p.r(U)p.r(C)p.r(C)p.r(C)p.r(U)p.r(C)p.r(A)p.r(A)p.r(A)p.r(C)p.r(A)p.r(G)p.r(A)p.[una](U)p.[una](U)}|RNA2{r(U)p.r(C)p.r(U)p.r(G)p.r(U)p.r(U)p.r(U)p.r(G)p.r(A)p.r(G)p.r(G)p.r(G)p.r(A)p.r(C)p.r(U)p.r(C)p.r(U)p.r(G)p.r(U)p.[una](U)p.[una](U)}$$$RNA1{StrandType:ss}|RNA2{StrandType:as}$	94% and 92% and 91%
